biological target: PI3KC2α Δ1-298 (Homo sapiens (Human), UniProt O00443); assay: ADP-Glo kinase assay with purified PI3KC2α Δ1-298; type: biochemical; conditions: not given
Procedure: Previous studies have shown that PI3KC2α can utilize phosphatidylinositol (PI) or phosphatidylinositol 4-phosphate [PI(4)P] to produce PI(3)P or PI(3,4)P2 respectively but with a preference for PI(3,4)P2 production. To verify that purified PI3KC2α Δ1-298 is active, a radioactive kinase assay was performed with PI as a substrate and different amounts of purified PI3KC2α Δ1-298. The lipid product [PI(3)P] was separated on TLC plates, and the PI(3)P signal was correlated with the amount of PI3KC2α used (FIG. 4A). […] After having confirmed the activity of purified PI3KC2α Δ1-298, an assay suitable for high content screens in multiwell format (ADP-Glo™ assay) was established. The ADP-Glo™ assay has been used for universal detection of ATP hydrolysis. This assay measures ATP hydrolysis occurring during a kinase reaction. For detection, generated ADP is re-converted into ATP with the […] and converted into light by the Ultra-Glo™ Luciferase reagent. The luminescent signal reports kinase activity (FIG. 4B).
The ADP-Glo™ assay was first used to determine the linear correlation range of signal with different amounts of kinase, and then to assess the Kms for ATP and for PI. […] Further optimization of this assay allowed us to carry out medium-to-high throughput screening using low amounts of purified enzyme (at fixed concentrations of: ATP=40 μM, PI=200 μM, PI3KC2α A1−298=10 ng/μl).
Primary screens were performed using the ADP-Glo™ assay in a 384-well format. 37, 224 small molecules were screened for their ability to inhibit kinase activity of PI3KC2α Δ1-298. The concentration of each compound used in the primary screens was 10 μM. Kinase incubations with ATP but without PI were used as negative control samples. This primary screen turned out to be robust with an average z′ factor of 0.57, and therefore judged as successful.
ADP-Glo kinase assay was performed as described by the manufacturer's protocol. Briefly, the kinase assay was performed with a […] of liver PI/ATP/purified PI3KC2α for 20 min in kinase reaction buffer described above. To deplete the remaining ATP from the reaction, 5 μl of […] was added to the kinase reaction mixture and incubated for 40 min. For detection, the generated ADP is re-converted into ATP and converted into light by the Ultra-Glo™ luciferase in kinase detection reagent. The luminescent signal positively correlates with kinase activity. All reactions are performed in Corning® 384 well-white plates.

PI3KC2α Δ1-298, sequence (O00443 299-1686): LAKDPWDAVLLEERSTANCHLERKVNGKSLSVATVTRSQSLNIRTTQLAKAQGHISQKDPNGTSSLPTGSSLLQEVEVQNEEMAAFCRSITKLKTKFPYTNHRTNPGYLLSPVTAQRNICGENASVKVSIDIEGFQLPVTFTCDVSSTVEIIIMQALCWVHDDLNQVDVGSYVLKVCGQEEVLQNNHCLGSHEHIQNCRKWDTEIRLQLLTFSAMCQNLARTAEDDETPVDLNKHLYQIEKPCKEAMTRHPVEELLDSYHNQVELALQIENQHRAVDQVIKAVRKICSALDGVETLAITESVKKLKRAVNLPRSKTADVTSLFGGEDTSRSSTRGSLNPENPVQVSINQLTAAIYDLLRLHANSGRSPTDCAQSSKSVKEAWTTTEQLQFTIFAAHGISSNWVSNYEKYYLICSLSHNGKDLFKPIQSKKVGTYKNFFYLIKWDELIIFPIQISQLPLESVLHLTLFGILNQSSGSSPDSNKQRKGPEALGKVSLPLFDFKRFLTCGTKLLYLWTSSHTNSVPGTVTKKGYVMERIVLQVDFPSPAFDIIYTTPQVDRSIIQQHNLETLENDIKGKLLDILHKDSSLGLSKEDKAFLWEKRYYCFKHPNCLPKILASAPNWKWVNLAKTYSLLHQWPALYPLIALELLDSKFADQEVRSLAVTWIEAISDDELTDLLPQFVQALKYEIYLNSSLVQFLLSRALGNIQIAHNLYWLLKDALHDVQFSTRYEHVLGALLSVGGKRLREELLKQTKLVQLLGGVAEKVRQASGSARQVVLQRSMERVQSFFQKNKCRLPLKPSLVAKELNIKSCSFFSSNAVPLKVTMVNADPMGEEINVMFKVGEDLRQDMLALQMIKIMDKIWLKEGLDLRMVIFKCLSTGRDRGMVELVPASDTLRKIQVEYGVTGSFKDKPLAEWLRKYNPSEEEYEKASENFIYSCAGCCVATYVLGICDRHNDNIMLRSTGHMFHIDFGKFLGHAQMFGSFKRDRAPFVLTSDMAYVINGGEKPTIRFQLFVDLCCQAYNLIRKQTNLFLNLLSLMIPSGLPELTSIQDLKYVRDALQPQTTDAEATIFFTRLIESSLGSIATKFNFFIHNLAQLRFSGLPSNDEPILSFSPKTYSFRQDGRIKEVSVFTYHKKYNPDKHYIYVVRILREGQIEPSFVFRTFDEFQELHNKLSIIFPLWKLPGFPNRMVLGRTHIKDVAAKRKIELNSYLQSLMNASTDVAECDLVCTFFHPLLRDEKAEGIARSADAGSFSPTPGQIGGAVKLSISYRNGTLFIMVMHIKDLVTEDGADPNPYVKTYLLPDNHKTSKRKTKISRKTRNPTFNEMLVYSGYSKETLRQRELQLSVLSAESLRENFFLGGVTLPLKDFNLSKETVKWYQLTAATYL

inhibition at 10 µM [%]	Compound
100	O=C(CSc1nc2nccnc2c(=O)n1CCc1ccccc1)Nc1nc(-c2cccc([N+](=O)[O-])c2)cs1 [Example Compound 58, N-(4-(3-Nitrophenyl)thiazol-2-yl)-2-((4-oxo-3-phenethyl-3,4-dihydropteridin-2-yl)thio)acetamide]
30	CC(C)NC(=O)CSc1nc2nccnc2c(=O)n1CCc1ccccc1 [Example Compound 61, N-Isopropyl-2-((4-oxo-3-phenethyl-3,4-dihydropteridin-2-yl)thio)acetamide]
35	O=C(CSc1nc2nccnc2c(=O)n1CCc1ccccc1)c1ccccc1F [Example Compound 64, 2-((2-(2-Fluorophenyl)-2-oxoethyl)thio)-3-phenethylpteridin-4(3H)-one]

same assay, conditions: read-out: IC50 (PI3KC2α; ADP-Glo™ assay)

Compound	IC50 [µM]
COc1cccc(-c2csc(NC(=O)CSc3nc4nccnc4c(=O)n3CCc3ccccc3)n2)c1 [Example Compound 31, N-(4-(3-Methoxyphenyl)thiazol-2-yl)-2-((4-oxo-3-phenethyl-3,4-dihydropteridin-2-yl)thio)acetamide]	2.4
O=C(CSc1nc2nccnc2c(=O)n1Cc1ccco1)Nc1nccs1 [Example Compound 32, 2-((3-(Furan-2-ylmethyl)-4-oxo-3,4-dihydropteridin-2-yl)thio)-N-(thiazol-2-yl)acetamide]	1.8
O=C(CSc1nc2nccnc2c(=O)n1Cc1ccco1)Nc1ccccc1F [Example Compound 33, N-(2-Fluorophenyl)-2-((3-(furan-2-ylmethyl)-4-oxo-3,4-dihydropteridin-2-yl)thio)acetamide]	7.9
O=C(CSc1nc2nccnc2c(=O)n1-c1ccccc1)Nc1nccs1 [Example Compound 40, 2-((4-Oxo-3-phenyl-3,4-dihydropteridin-2-yl)thio)-N-(thiazol-2-yl)acetamide]	6.6
NC(=O)c1ccc(-n2c(SCC(=O)Nc3nccs3)nc3nccnc3c2=O)cc1 [Example Compound 41, 4-(4-Oxo-2-((2-oxo-2-(thiazol-2-ylamino)ethyl)thio)pteridin-3(4H)-yl)benzamide]	0.051
O=C(CSc1nc2nccnc2c(=O)n1Cc1ccccc1)Nc1nccs1 [Example Compound 42, 2-((3-Benzyl-4-oxo-3,4-dihydropteridin-2-yl)thio)-N-(thiazol-2-yl)acetamide]	< 50
O=C(CSc1nc2nccnc2c(=O)n1CCC1CCCCC1)Nc1nccs1 [Example Compound 44, 2-((3-(2-Cyclohexylethyl)-4-oxo-3,4-dihydropteridin-2-yl)thio)-N-(thiazol-2-yl)acetamide]	0.59
O=C(CSc1nc2nccnc2c(=O)n1CCc1ccccc1)Nc1ncc(Cl)s1 [Example Compound 45, N-(5-Chlorothiazol-2-yl)-2-((4-oxo-3-phenethyl-3,4-dihydropteridin-2-yl)thio)acetamide]	35
Cc1cnc2nc(SCC(=O)Nc3nccs3)n(CCc3ccccc3)c(=O)c2n1 [Example Compound 46, 2-((6-Methyl-4-oxo-3-phenethyl-3,4-dihydropteridin-2-yl)thio)-N-(thiazol-2-yl)acetamide]	23
O=C(CSc1nc2nccnc2c(=O)n1CCc1ccccc1)Nc1nc(-c2ccc3ccccc3c2)cs1 [Example Compound 48, N-(4-(Naphthalen-2-yl)thiazol-2-yl)-2-((4-oxo-3-phenethyl-3,4-dihydropteridin-2-yl)thio)acetamide]	26
O=C(CSc1nc2nccnc2c(=O)n1CCc1ccccc1)Nc1nc(-c2ccc(Cl)cc2)cs1 [Example Compound 49, N-(4-(4-Chlorophenyl)thiazol-2-yl)-2-((4-oxo-3-phenethyl-3,4-dihydropteridin-2-yl)thio)acetamide]	7.1
N#Cc1ccc(-c2csc(NC(=O)CSc3nc4nccnc4c(=O)n3CCc3ccccc3)n2)cc1 [Example Compound 50, N-(4-(4-Cyanophenyl)thiazol-2-yl)-2-((4-oxo-3-phenethyl-3,4-dihydropteridin-2-yl)thio)acetamide]	2.9
CS(=O)(=O)c1ccc(-c2csc(NC(=O)CSc3nc4nccnc4c(=O)n3CCc3ccccc3)n2)cc1 [Example Compound 53, N-(4-(4-(Methylsulfonyl)phenyl)thiazol-2-yl)-2-((4-oxo-3-phenethyl-3,4-dihydropteridin-2-yl)thio)acetamide]	1.3
O=C(CSc1nc2ncccc2c(=O)n1CCc1ccccc1)Nc1nccs1 [Example Compound 54, 2-((4-Oxo-3-phenethyl-3,4-dihydropyrido[2,3-d]pyrimidin-2-yl)thio)-N-(thiazol-2-yl)acetamide]	0.82
CS(=O)(=O)N(c1cccc(-c2csc(NC(=O)CSc3nc4nccnc4c(=O)n3CCc3ccccc3)n2)c1)S(C)(=O)=O [Example Compound 55, N-(4-(3-(N-(Methylsulfonyl)methylsulfonamido)phenyl)thiazol-2-yl)-2-((4-oxo-3-phenethyl-3,4-dihydropteridin-2-yl)thio)acetamide]	0.2
COc1cccc2nc(NC(=O)CSc3nc4nccnc4c(=O)n3CCc3ccccc3)sc12 [Example Compound 56, N-(7-Methoxybenzo[d]thiazol-2-yl)-2-((4-oxo-3-phenethyl-3,4-dihydropteridin-2-yl)thio)acetamide]	3.1
O=C(CSc1nc2nccnc2c(=O)n1CCc1ccccc1)Nc1nc2c(F)cc(F)cc2s1 [Example Compound 57, N-(4,6-Difluorobenzo[d]thiazol-2-yl)-2-((4-oxo-3-phenethyl-3,4-dihydropteridin-2-yl)thio)acetamide]	3.4

Next, values leading:

IC50 [µM]	Compound
0.15	Nc1cccc(-c2csc(NC(=O)CSc3nc4nccnc4c(=O)n3CCc3ccccc3)n2)c1 [Example Compound 59, N-(4-(3-Aminophenyl)thiazol-2-yl)-2-((4-oxo-3-phenethyl-3,4-dihydropteridin-2-yl)thio)acetamide]
5.9	O=C(CSc1nc2nccnc2c(=O)n1CCc1ccccc1)NC1CCC1 [Example Compound 60, N-Cyclobutyl-2-((4-oxo-3-phenethyl-3,4-dihydropteridin-2-yl)thio)acetamide]
4	O=c1c2nccnc2nc(SCc2nc3ccccc3s2)n1CCc1ccccc1 [Example Compound 62, 2-((Benzo[d]thiazol-2-ylmethyl)thio)-3-phenethylpteridin-4(3H)-one]
5.7	O=c1c2nccnc2nc(SCc2nc3ccccc3o2)n1CCc1ccccc1 [Example Compound 63, 2-((Benzo[d]oxazol-2-ylmethyl)thio)-3-phenethylpteridin-4(3H)-one]
0.17	O=c1c2nccnc2nc(SCc2nc3ccccc3[nH]2)n1CCc1ccccc1 [Example Compound 65, 2-(((1H-Benzo[d]imidazol-2-yl)methyl)thio)-3-phenethylpteridin-4(3H)-one]
1.9	O=c1[nH]c(CSc2nc3nccnc3c(=O)n2CCc2ccccc2)nc2ccccc12 [Example Compound 67, 2-(((4-Oxo-3,4-dihydroquinazolin-2-yl)methyl)thio)-3-phenethylpteridin-4(3H)-one]
1.4	Cn1c(=O)c2nc(CSc3nc4nccnc4c(=O)n3CCc3ccccc3)[nH]c2n(C)c1=O [Example Compound 68, 1,3-Dimethyl-8-(((4-oxo-3-phenethyl-3,4-dihydropteridin-2-yl)thio)methyl)-3,9-dihydro-1H-purine-2,6-dione]
27	O=c1c2nccnc2nc(SCc2nc3cc(Cl)ccc3[nH]2)n1CCc1ccccc1 [Example Compound 69, 2-(((5-Chloro-1H-benzo[d]imidazol-2-yl)methyl)thio)-3-phenethylpteridin-4(3H)-one]
42	Cc1ccnc2[nH]c(CSc3nc4nccnc4c(=O)n3CCc3ccccc3)nc12 [Example Compound 70, 2-(((7-Methyl-3H-imidazo[4,5-b]pyridin-2-yl)methyl)thio)-3-phenethylpteridin-4(3H)-one]
1.5	Cn1ncc2c(=O)[nH]c(CSc3nc4nccnc4c(=O)n3CCc3ccccc3)nc21 [Example Compound 71, 2-(((1-Methyl-4-oxo-4,5-dihydro-1H-pyrazolo[3,4-d]pyrimidin-6-yl)methyl)thio)-3-phenethylpteridin-4(3H)-one]
51	O=c1c2nccnc2nc(SCc2nc3cc(Br)ccc3[nH]2)n1CCc1ccccc1 [Example Compound 72, 2-(((5-Bromo-1H-benzo[d]imidazol-2-yl)methyl)thio)-3-phenethylpteridin-4(3H)-one]
0.61	O=c1c2nccnc2nc(SCc2nc3cccnc3[nH]2)n1CCc1ccccc1 [Example Compound 73, 2-(((3H-Imidazo[4,5-b]pyridin-2-yl)methyl)thio)-3-phenethylpteridin-4(3H)-one]
